Publication PMC7283026 (Neuro-Oncology, 2020)
Each block holds one compound with its values, some of them ahead of it.

How the values were obtained:
human P-gp = human P-gp (Homo sapiens, UniProt P08183); assay type: in vitro ADME; conditions: LLC-PK1
mouse P-gp = mouse P-gp (Mus musculus, UniProt P21447); assay type: in vitro ADME; conditions: LLC-PK1
[1] = Kinetic lipid membrane binding assay; assay type: in vitro ADME, porcine; conditions: pig, pH 7.4
P-gp = conditions: cited from earlier work
[2] = rat plasma; from FDA pharmacology reviews; cited from earlier work
TRKA/B/C = conditions: read-out: IC50 against TRKA/B/C; cited from earlier work
[3] = tested on: breast cancer resistance protein (BCRP); conditions: cited from earlier work
[4] = cited from earlier work; for Cave,ss, reported clinical concentration: patients, efficacious dose
[5] = Brain distribution study following i.v. bolus and i.v. infusion in rats; conditions: rat; for δ brain concentration at SS / δ plasma concentration at SS: difference between the two time points, (SD)
[6] = Plasma protein binding by equilibrium dialysis, human plasma; assay type: in vitro ADME; conditions: pH 7.5
[7] = Plasma protein binding by equilibrium dialysis, mouse plasma; assay type: in vitro ADME; conditions: pH 7.5
[8] = Plasma protein binding, rat plasma; assay type: in vitro ADME; conditions: pH 7.5
[9] = tested on: KM12-Luc intracranial tumor; experiment: Efficacy in KM12-Luc intracranial tumor xenograft mouse model; assay type: in vivo, athymic nu/nu mice; conditions: 28 days
[10] = Plasma pharmacokinetics in KM12-Luc ITC tumor-bearing mice; assay type: in vivo, Balb/c nude mice; conditions: for AUC(0-t): Balb/c nude, mouse, in vivo, po
[11] = Single oral-dose in vivo PK study of rats; conditions: rat
BNN2 and BNN4 gliomas = conditions: clinically relevant systemic exposures; cited from earlier work
[12] = recommended human oral dose of 600 mg/kg q.d.

Sequence of mouse P-gp (P21447 whole entry): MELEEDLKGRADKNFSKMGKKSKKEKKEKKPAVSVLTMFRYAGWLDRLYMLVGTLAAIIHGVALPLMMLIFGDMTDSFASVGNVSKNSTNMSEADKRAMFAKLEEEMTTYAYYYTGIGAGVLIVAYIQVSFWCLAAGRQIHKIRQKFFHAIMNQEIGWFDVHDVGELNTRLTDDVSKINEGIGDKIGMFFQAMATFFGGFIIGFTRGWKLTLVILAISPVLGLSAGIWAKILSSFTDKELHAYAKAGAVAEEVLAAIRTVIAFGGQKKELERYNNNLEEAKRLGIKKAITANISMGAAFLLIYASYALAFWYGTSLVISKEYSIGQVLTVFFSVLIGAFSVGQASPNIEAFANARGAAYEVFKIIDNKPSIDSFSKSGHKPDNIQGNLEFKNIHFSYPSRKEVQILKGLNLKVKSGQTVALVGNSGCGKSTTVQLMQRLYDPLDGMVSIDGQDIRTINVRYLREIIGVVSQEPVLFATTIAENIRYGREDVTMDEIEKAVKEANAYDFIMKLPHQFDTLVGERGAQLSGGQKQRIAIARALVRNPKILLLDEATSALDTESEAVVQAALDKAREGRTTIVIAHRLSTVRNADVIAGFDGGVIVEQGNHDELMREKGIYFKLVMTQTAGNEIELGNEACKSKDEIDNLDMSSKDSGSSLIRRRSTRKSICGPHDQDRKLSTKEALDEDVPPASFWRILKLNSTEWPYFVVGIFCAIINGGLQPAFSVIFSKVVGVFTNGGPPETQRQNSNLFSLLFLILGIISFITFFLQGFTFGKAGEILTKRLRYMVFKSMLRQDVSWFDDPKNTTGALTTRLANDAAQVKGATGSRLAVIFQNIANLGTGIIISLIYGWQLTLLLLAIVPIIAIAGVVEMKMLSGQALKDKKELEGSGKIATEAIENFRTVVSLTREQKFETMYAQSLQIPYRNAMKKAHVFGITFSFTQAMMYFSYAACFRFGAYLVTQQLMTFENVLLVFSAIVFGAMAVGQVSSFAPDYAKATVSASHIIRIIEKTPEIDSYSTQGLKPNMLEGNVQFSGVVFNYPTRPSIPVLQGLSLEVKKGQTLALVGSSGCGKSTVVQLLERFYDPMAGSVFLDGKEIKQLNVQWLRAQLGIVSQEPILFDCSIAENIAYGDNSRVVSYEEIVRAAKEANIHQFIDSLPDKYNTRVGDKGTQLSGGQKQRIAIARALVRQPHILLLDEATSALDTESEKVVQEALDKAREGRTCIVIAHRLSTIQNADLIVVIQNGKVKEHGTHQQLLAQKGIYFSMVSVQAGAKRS
Sequence of human P-gp (P08183 whole entry): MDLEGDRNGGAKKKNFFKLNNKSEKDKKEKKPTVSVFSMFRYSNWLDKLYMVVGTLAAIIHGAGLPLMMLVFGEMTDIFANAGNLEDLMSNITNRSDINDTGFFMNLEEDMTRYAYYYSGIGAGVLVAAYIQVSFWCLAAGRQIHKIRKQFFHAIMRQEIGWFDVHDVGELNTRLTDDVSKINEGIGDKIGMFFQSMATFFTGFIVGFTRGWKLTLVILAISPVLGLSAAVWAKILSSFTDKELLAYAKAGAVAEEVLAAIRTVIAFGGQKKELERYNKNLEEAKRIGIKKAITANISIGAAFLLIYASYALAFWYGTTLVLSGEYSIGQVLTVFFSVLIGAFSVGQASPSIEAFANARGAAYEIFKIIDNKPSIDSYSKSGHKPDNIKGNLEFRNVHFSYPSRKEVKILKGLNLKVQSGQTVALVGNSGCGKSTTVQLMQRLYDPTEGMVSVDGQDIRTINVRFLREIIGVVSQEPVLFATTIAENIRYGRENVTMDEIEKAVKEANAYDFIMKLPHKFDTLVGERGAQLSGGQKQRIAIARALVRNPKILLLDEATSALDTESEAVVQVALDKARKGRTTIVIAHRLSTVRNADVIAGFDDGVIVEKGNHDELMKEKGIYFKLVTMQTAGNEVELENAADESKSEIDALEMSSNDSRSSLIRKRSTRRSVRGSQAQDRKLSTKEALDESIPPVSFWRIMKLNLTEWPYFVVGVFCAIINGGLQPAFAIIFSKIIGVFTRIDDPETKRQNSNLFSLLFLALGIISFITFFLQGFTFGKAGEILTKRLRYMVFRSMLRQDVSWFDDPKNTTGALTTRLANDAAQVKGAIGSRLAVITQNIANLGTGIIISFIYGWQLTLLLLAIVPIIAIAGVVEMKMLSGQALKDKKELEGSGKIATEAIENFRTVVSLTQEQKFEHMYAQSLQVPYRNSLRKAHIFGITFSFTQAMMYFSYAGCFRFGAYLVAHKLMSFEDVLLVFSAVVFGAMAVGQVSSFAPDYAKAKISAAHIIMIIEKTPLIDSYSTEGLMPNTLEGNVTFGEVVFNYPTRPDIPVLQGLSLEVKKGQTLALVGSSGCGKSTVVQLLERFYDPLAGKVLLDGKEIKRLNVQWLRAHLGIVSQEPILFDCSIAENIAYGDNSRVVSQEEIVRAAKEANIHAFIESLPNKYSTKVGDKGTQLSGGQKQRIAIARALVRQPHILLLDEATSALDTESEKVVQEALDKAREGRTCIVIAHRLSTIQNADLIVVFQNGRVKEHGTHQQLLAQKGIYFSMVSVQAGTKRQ

Papp B→A at 3.5 h, 1 µM (human P-gp): 12.1 ± 0.73 ×10⁻⁶ cm/s
efflux ratio at 3.5 h, 1 µM (human P-gp): 11
Papp A→B at 3.5 h, 1 µM (mouse P-gp): 1.22 ± 0.1 ×10⁻⁶ cm/s
Papp B→A at 3.5 h, 1 µM (mouse P-gp): 12.5 ± 0.28 ×10⁻⁶ cm/s
efflux ratio at 3.5 h, 1 µM (mouse P-gp): 10
SMILES: C[C@H]1O[C@@H](O[C@H]2[C@@H](O)C[C@H](O[C@H]3[C@@H](O)C[C@H](O[C@H]4CC[C@@]5(C)[C@H](CC[C@@H]6[C@@H]5C[C@@H](O)[C@]5(C)[C@@H](C7=CC(=O)OC7)CC[C@]65O)C4)O[C@@H]3C)O[C@@H]2C)C[C@H](O)[C@@H]1O [Digoxin, digoxin]

Papp A→B at 3.5 h, 1 µM (human P-gp): 1.85 ×10⁻⁶ cm/s
Papp B→A at 3.5 h, 1 µM (human P-gp): 18.2 ± 3.7 ×10⁻⁶ cm/s
efflux ratio at 3.5 h, 1 µM (human P-gp): 10
Papp A→B at 3.5 h, 1 µM (mouse P-gp): 0.82 ± 0.07 ×10⁻⁶ cm/s
Papp B→A at 3.5 h, 1 µM (mouse P-gp): 16.1 ± 0.7 ×10⁻⁶ cm/s
efflux ratio at 3.5 h, 1 µM (mouse P-gp): 20
half-life at 10 µM [1]: 6.2 min
Kp at 4 h ([5]; male, Sprague Dawley, in vivo): 0.027
Kp at 5 h ([5]; male, Sprague Dawley, in vivo): 0.031
δ brain concentration at SS [5]: 1.6 (3.74–5.60) nM
δ plasma concentration at SS [5]: 2 (46.3–82.2) nM
SMILES: O=C(Nc1cnn2ccc(N3CCC[C@@H]3c3cc(F)ccc3F)nc12)N1CC[C@H](O)C1 [Larotrectinib, larotrectinib]
known substrate for P-gp (P-gp): known substrates for P-gp
Fu in plasma [2]: 0.349
IC50 (TRKA/B/C): 5 to 11 nM
substrate of breast cancer resistance protein (BCRP) [3]: substrate
Cave,ss, reported clinical concentration [4]: 423 nM

SMILES: CN1CCN(c2ccc(C(=O)Nc3n[nH]c4ccc(Cc5cc(F)cc(F)c5)cc34)c(NC3CCOCC3)c2)CC1 [Entrectinib, entrectinib]
Papp A→B at 3.5 h, 1 µM (human P-gp): 1.35 ± 0.34 ×10⁻⁶ cm/s
Papp B→A at 3.5 h, 1 µM (human P-gp): 19.7 ± 0.5 ×10⁻⁶ cm/s
Papp A→B at 3.5 h, 1 µM (mouse P-gp): 0.99 ± 0.04 ×10⁻⁶ cm/s
Papp B→A at 3.5 h, 1 µM (mouse P-gp): 25.5 ± 1.9 ×10⁻⁶ cm/s
half-life at 10 µM [1]: 9.6 min
fraction unbound at 5 h [6]: 0.0022 ± 0.0005
fraction unbound at 5 h [7]: 0.0034 ± 0.0003
fraction unbound at 5 h [8]: 0.0032 ± 0.0009
Survival through day 28 ([9]; 1 mg/kg b.i.d. oral): 0%
Survival through day 28 ([9]; 5 mg/kg b.i.d. oral): 11%
Survival through day 28 ([9]; 10 mg/kg q.d. oral): 67%
Survival through day 28 ([9]; 15 mg/kg b.i.d. oral): 100%
Survival through day 28 ([9]; 30 mg/kg q.d. oral): 100%
Survival through day 28 ([9]; 60 mg/kg b.i.d. oral): 100%
Tolerability ([9]; all dose levels tested (1, 5, 15, 60 mg/kg b.i.d.; 10, 30 mg/kg q.d.)): well tolerated
AUC(0-t) ([10]; 2 mg/kg/day): 1.3 µM·h
AUC(0-t) ([10]; 10 mg/kg/day): 11.3 µM·h
AUC(0-t) ([10]; 30 mg/kg): 24.5 to 54.8 µM·h
AUC(0-t) ([10]; 30 mg/kg/day): 38.3 µM·h
AUC(0-t) ([10]; 60 mg/kg/day): 45.3 µM·h
AUC(0-t) ([10]; 120 mg/kg/day): 99.9 µM·h
average plasma concentration (AUC24h/24 hours) ([10]; oral, daily dose of 30 mg/kg): ~ 1.6 µM
Kp ([11]; brain / plasma, po, 20 mg/kg): 0.185
concentration in the CSF ([11]; single oral dose 20 mg/kg, inferior to the LLOQ, data not shown): < 1 nM
antitumor effect in intracranial NTRK1 fusion-positive glioma model (BNN2 and BNN4 gliomas): tumor growth inhibition and full survival benefit
Cave,ss, reported clinical concentration [4]: 2000 nM
AUC24h at SS in patients [4, 12]: 48 µM·h
estimated average plasma concentration in patients [4, 12]: approximately 2.0 µM
Kp at 5 h ([5]; male, Sprague Dawley, in vivo, Measured CSF/Cu,p ratio, 5 h): 0.25
Kp at 6 h ([5]; male, Sprague Dawley, in vivo, Measured CSF/Cu,p ratio, 6 h): 0.18
δ brain concentration at SS [5]: 276 (71.2–186) nM
δ plasma concentration at SS [5]: 140 (109–430) nM
δ brain concentration at SS ([5]; listed as entrectinib): 276 nM
δ plasma concentration at SS ([5]; listed as entrectinib): 140 nM

Papp A→B at 3.5 h, 1 µM (human P-gp): 1.38 ± 0.03 ×10⁻⁶ cm/s
Papp B→A at 3.5 h, 1 µM (human P-gp): 38.8 ± 1.7 ×10⁻⁶ cm/s
Papp A→B at 3.5 h, 1 µM (mouse P-gp): 1.2 ± 0.15 ×10⁻⁶ cm/s
Papp B→A at 3.5 h, 1 µM (mouse P-gp): 34.4 ± 1.68 ×10⁻⁶ cm/s
half-life at 10 µM [1]: 7.4 min
Kp at 5 h ([5]; male, Sprague Dawley, in vivo): 0.041
Kp at 6 h ([5]; male, Sprague Dawley, in vivo): 0.028
δ brain concentration at SS [5]: 87 (12.1–131) nM
δ plasma concentration at SS [5]: 12 (47.9–53.7) nM
SMILES: C[C@@H](Oc1cc(-c2cnn(C3CCNCC3)c2)cnc1N)c1c(Cl)ccc(F)c1Cl [Crizotinib, crizotinib]
known substrate for P-gp (P-gp): known substrates for P-gp
Fu in plasma [2]: 0.057
Cave,ss, reported clinical concentration [4]: 874 nM
